Results as given in ChEMBL document CHEMBL1201862, “PubChem BioAssay data set” (2004).
The source made the active and inactive calls.

What was measured:
[1] = biological target: T1, Delta-type opioid receptor (Homo sapiens, UniProt P41143); assay: HTS Image-Based Screen for Antagonists of the DOR Receptor. [Related pubchem assays (depositor defined):AID1777, AID1785, AID1786, AID2133]; assay type: functional
[2] = inhibitors of firefly luciferase expression or activity, dose response, H4 neuroglioma cells, luminescence (AID 1990); assay type: functional, cell-based
Mu-type opioid receptor [3] = biological target: T2, Mu-type opioid receptor (Homo sapiens, UniProt P35372); assay: HTS Image-Based Screen for Agonists of the MOR Receptor. [Related pubchem assays (depositor defined):AID1777, AID1785, AID1786, AID2133]; assay type: functional
[4] = biological target: T1, Delta-type opioid receptor; assay: HTS Image-Based Screen for Agonists of the DOR Receptor. [Related pubchem assays (depositor defined):AID1777, AID1786, AID2133]; assay type: functional
[5] = Luminescence Cell-Based Dose Response HTS to Identify Inhibitors of 5'UTR Stem-Loop Driven Prion Protein mRNA Translation in H4 Neuroglioblastoma Cells. [Related pubchem assays: 1827 (Project Summary), 1813 (Primary HTS)]; assay type: functional
[6] = inhibitors of SNCA 5'UTR-driven reporter translation, confirmation, H4 neuroglioma cells, luminescence (AID 1988); assay type: functional, cell-based
[7] = inhibitors of intracellular T. cruzi replication, confirmation, NIH3T3 host cells, beta-gal luminescence (AID 2044); assay type: functional, cell-based;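 also: intracellular parasites grown in NIH/3T3 mouse fibroblasts as host cells; luminescent beta-galactosidase reporter signal from transgenic T. cruzi replicating inside host cells; inhibitors lower the luminescence signal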
[8] = biological target: T3, Kappa-type opioid receptor (Homo sapiens, UniProt P41145); assay type: functional
[9] = cytotoxicity toward NIH3T3 fibroblasts, dose response, counter-screen, cell-based, ATP luminescence, mouse fibroblasts (AID 2010); assay type: functional;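 also: cells exposed to compound for about 90 hours before reading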
Beta-galactosidase = Beta-galactosidase (Escherichia coli, UniProt Q8VNN2); assay type: functional
[10] = biological target: T4, Sphingosine 1-phosphate receptor 4 (Homo sapiens, UniProt O95977); assay: Fluorescence dose response cell-based high throughput screening assay for antagonists of the Sphingosine 1-Phosphate Receptor 4 (S1P4). [Related pubchem assays: 1524 (Confirmation in triplicates.), 1510 (Primary screen.)]; assay type: functional
T4 sequence (O95977 whole entry): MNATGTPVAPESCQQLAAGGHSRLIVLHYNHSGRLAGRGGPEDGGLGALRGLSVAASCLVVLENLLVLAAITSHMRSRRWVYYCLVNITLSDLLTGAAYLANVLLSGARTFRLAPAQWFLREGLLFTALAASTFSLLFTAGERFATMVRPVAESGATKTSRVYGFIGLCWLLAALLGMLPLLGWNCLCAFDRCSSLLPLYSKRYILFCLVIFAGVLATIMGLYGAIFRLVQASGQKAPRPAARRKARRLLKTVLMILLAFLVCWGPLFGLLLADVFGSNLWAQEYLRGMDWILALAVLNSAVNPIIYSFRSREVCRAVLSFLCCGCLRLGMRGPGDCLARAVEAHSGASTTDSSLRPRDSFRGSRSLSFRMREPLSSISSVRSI

[11] = biological target: T3, Kappa-type opioid receptor; assay type: functional; remark: listed apart in the source
[12] = biological target: T5, Sphingosine 1-phosphate receptor 1 (Homo sapiens, UniProt P21453); assay type: functional
[13] = biological target: T6, Microphthalmia-associated transcription factor (Homo sapiens, UniProt O75030); assay: TRPM1 promoter luciferase signal decrease, dose response, MITF inhibitor project, cell-based, SK-MEL-5, cherry-picked, set 3 (AID 493073); assay type: functional
T6 sequence (O75030 whole entry): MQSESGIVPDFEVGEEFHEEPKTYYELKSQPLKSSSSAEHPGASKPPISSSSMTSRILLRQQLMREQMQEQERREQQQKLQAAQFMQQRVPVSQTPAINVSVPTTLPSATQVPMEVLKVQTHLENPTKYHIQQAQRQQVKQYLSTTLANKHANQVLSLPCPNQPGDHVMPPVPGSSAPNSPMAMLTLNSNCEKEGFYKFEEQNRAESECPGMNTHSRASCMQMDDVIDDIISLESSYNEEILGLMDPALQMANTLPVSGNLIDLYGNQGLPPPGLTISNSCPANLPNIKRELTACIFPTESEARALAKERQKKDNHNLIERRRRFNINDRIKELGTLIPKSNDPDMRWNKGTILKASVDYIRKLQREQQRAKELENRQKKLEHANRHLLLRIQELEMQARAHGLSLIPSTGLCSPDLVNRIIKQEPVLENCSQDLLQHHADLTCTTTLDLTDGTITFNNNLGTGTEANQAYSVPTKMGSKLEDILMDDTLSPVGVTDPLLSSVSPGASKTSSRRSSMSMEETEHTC

A-375 [14] = assay: MITF: Counter assay: A375 proliferation Measured in Cell-Based System Using Plate Reader - 2084-03_Inhibitor_Dose_DryPowder_Activity. [Related pubchem assays (depositor defined):AID488944]; assay type: functional; conditions: Homo sapiens
A-375 [15] = assay: A375 melanoma cell viability reduction, dose response, counter-screen for MITF modulator project, cherry-pick samples, set 2 (AID 540335); assay type: functional, cell-based; conditions: Homo sapiens
[16] = A549 cell cytotoxicity, dose response, cytotoxicity control, plate reader, cherry-pick, antagonist series (AID 743412); assay type: functional, cell-based
[17] = HepG2 cell cytotoxicity, dose response, cytotoxicity control, plate reader, cherry-pick, antagonist series (AID 743416); assay type: functional, cell-based
[18] = LGR2 antagonists, dose response, cell-based, HEK293, CRE-luciferase reporter, cherry pick, set 2 (AID 743343); assay type: functional;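 also: transfected cells were stimulated with diluted bursicon conditioned medium after compound addition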
[19] = MC4R antagonists, dose response, counter-screen for LGR2 antagonist project, cell-based, plate reader, cherry pick (AID 743444); assay type: functional;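 also: transfected HEK 293 cells stimulated with alpha-MSH peptide; potency of inhibitors of the alpha-MSH evoked signal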
[20] = HEK293 cell cytotoxicity, dose response, cytotoxicity control, plate reader, cherry-picked samples (AID 743446); assay type: functional, cell-based
[21] = biological target: Sphingosine 1-phosphate receptor 5 (Homo sapiens, UniProt Q9H228); assay: Late stage counterscreen assay for S1P4 antagonists: Fluorescence dose response cell-based screening assay for antagonists of the Sphingosine 1-Phosphate Receptor 5 (S1P5). [Related pubchem assays (depositor defined):AID1510, AID1524, AID1692, AID1853, AID2332, AID489009, AID489017]; assay type: functional
[22] = biological target: Sphingosine 1-phosphate receptor 3 (Homo sapiens, UniProt Q99500); assay: Late stage counterscreen assay for S1P4 antagonists: Fluorescence dose response cell-based screening assay for antagonists of the Sphingosine 1-Phosphate Receptor 3 (S1P3). [Related pubchem assays (depositor defined):AID1510, AID1524, AID1692, AID1853, AID2332, AID489009, AID489017]; assay type: functional
[23] = biological target: T5, Sphingosine 1-phosphate receptor 1; assay: Late stage counterscreen assay for S1P4 antagonists: Fluorescence dose response cell-based screening assay for antagonists of the Sphingosine 1-Phosphate Receptor 1 (S1P1). [Related pubchem assays (depositor defined):AID1510, AID1524, AID1692, AID1853, AID2332, AID489009, AID489017]; assay type: functional
[24] = biological target: T4, Sphingosine 1-phosphate receptor 4; assay: S1P4 receptor antagonists, human, late-stage follow-up, cell-based, fluorescence, synthesized analogues (AID 2346); assay type: functional
[25] = biological target: Sphingosine 1-phosphate receptor 2 (Homo sapiens, UniProt O95136); assay: Late stage counterscreen assay for S1P4 antagonists: Fluorescence dose response cell-based screening assay for antagonists of the Sphingosine 1-Phosphate Receptor 2 (S1P2). [Related pubchem assays (depositor defined):AID1510, AID1524, AID1692, AID1853, AID2332, AID489009, AID489017]; assay type: functional
Mu-type opioid receptor [26] = biological target: T2, Mu-type opioid receptor; assay: SAR Analysis of Antagonists of the MOR Receptor using an Image-Based Assay - Set 2. [Related pubchem assays (depositor defined):AID1777, AID1785, AID1786, AID1966, AID2133, AID2136, AID2284, AID2285, AID2420]; assay type: functional
[27] = biological target: T3, Kappa-type opioid receptor; assay: KOR agonist analogs, arrestin-GFP redistribution, SAR follow-up, imaging, image-based, set 3 (AID 488833); assay type: functional
Mu-type opioid receptor [28] = biological target: T2, Mu-type opioid receptor; assay: SAR Analysis of Agonists of the MOR Receptor using an Image-Based Assay - Set 3. [Related pubchem assays (depositor defined):AID1777, AID1785, AID1786, AID1966, AID2133, AID2136, AID2284, AID2285, AID2352]; assay type: functional
[29] = biological target: T3, Kappa-type opioid receptor; assay: SAR analysis of Antagonists of the Kappa Opioid Receptor (KOR) using an Image-Based Assay - Set 2. [Related pubchem assays (depositor defined):AID1777, AID1785, AID1786, AID1966, AID2133, AID2136, AID2284, AID2285, AID2348]; assay type: functional
Mu-type opioid receptor [30] = biological target: T2, Mu-type opioid receptor; assay: SAR Analysis of Agonists of the MOR Receptor using an Image-Based Assay - Set 2. [Related pubchem assays (depositor defined):AID1777, AID1785, AID1786, AID1966, AID2133, AID2136, AID2284, AID2285, AID2352]; assay type: functional
[31] = biological target: T1, Delta-type opioid receptor; assay: SAR Analysis of Agonists of the DOR Receptor using an Image-Based Assay - Set 2. [Related pubchem assays (depositor defined):AID1777, AID1785, AID1786, AID1966, AID2133, AID2136, AID2284, AID2285, AID2370]; assay type: functional
[32] = biological target: T1, Delta-type opioid receptor; assay: SAR Analysis of Antagonists of the DOR Receptor using an Image-Based Assay - Set 2. [Related pubchem assays (depositor defined):AID1777, AID1785, AID1786, AID1966, AID2133, AID2136, AID2284, AID2285, AID2357]; assay type: functional
[33] = biological target: T1, Delta-type opioid receptor; assay: SAR Analysis of Agonists of the DOR Receptor using an Image-Based Assay - Set 3. [Related pubchem assays (depositor defined):AID1777, AID1786]; assay type: functional
[34] = biological target: T3, Kappa-type opioid receptor; assay: SAR analysis of small molecule agonists of the kappa opioid receptor via a luminescent beta-arrestin assay - Set 3. [Related pubchem assays (depositor defined):AID1777, AID1785, AID1786, AID1966, AID2133, AID2136, AID2284, AID2500]; assay type: functional
[35] = biological target: Nuclear receptor ROR-gamma (Homo sapiens, UniProt P51449); assay: ROR modulator nuclear receptor reporter panel, late-stage follow-up, ROR modulator project, cell-based, luciferase reporter, panel member RORG (AID 2117)
[36] = biological target: Nuclear receptor ROR-alpha (Homo sapiens, UniProt P35398); assay: ROR modulator nuclear receptor reporter panel, late-stage follow-up, ROR modulator project, cell-based, luciferase reporter, panel member RORA (AID 2117)
[37] = biological target: G-protein coupled receptor 55 (Homo sapiens, UniProt Q9Y2T6); assay: GPR55 antagonists blocking LPI-driven arrestin recruitment, primary screen, imaging, U2OS, beta-arrestin-GFP, LPI agonist (AID 2013); assay type: functional;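 also: antagonist potency measured as reduced agonist-driven arrestin aggregation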
Exodeoxyribonuclease V = Exodeoxyribonuclease V (Escherichia coli (strain K12), UniProt P04993+P07648+P08394); assay: E. coli RecBCD inhibitors, dose response, counter-screen for AddAB inhibitor project, absorbance, V66 E. coli, mutant T4 phage (AID 492957); assay type: functional, cell-based, Escherichia coli str. K-12 substr. MG1655
[38] = Counterscreen for AddAB inhibitors: absorbance-based bacterial cell-based high throughput dose response assay for inhibitors of bacterial viability. [Related pubchem assays (depositor defined):AID435030, AID449728, AID449731, AID488942, AID488955, AID488956]; assay type: functional

T2 sequence (P35372 whole entry): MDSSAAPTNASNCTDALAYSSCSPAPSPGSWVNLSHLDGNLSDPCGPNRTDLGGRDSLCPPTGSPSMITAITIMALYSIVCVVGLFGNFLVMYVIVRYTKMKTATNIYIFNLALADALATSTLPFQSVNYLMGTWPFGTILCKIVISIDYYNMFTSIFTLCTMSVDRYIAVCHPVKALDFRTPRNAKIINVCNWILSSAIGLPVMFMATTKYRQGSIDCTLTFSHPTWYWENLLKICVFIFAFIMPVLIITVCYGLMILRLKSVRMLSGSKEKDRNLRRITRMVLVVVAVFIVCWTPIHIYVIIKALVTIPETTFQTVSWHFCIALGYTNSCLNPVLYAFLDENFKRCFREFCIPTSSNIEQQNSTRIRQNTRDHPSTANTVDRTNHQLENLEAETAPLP
T3 sequence (P41145 whole entry): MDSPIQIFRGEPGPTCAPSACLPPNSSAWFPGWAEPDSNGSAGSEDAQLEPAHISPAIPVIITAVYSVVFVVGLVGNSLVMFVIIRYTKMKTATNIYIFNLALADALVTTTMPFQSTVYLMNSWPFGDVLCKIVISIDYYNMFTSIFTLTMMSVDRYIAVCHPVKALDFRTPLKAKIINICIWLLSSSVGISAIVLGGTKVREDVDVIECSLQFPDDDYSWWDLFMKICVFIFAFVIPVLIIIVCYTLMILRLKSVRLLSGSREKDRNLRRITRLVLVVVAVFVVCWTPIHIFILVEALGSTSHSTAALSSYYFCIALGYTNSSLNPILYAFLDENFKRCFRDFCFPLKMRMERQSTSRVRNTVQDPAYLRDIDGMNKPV
T1 sequence (P41143 whole entry): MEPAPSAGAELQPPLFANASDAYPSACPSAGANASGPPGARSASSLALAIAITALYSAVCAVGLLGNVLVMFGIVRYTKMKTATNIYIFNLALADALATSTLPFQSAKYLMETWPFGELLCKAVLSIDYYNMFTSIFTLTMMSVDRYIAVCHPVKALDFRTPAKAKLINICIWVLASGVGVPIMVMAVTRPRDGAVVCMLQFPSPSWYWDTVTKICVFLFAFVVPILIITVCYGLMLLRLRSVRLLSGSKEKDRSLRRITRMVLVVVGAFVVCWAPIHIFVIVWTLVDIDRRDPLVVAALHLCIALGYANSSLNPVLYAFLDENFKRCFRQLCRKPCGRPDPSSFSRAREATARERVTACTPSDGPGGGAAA
T5 sequence (P21453 whole entry): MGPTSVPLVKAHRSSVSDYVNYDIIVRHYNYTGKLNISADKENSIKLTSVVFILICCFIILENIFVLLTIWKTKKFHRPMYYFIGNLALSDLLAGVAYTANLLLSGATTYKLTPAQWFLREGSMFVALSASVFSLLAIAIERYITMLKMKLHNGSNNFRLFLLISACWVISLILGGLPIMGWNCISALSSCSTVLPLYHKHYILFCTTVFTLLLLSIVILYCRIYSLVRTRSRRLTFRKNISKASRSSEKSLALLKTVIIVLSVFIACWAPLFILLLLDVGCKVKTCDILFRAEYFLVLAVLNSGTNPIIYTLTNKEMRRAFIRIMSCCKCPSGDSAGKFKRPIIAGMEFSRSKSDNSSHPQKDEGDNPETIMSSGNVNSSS
Sphingosine 1-phosphate receptor 2, sequence (O95136 whole entry): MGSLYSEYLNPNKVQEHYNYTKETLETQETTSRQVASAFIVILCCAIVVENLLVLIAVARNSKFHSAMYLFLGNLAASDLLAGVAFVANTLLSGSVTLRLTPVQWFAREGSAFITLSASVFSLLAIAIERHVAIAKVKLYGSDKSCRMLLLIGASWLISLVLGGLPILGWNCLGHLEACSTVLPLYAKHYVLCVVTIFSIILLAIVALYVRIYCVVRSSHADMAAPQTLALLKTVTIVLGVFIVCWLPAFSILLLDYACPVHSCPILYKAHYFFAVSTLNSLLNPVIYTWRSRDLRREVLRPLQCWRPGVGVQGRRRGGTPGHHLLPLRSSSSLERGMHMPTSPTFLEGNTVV
Sphingosine 1-phosphate receptor 5, sequence (Q9H228 whole entry): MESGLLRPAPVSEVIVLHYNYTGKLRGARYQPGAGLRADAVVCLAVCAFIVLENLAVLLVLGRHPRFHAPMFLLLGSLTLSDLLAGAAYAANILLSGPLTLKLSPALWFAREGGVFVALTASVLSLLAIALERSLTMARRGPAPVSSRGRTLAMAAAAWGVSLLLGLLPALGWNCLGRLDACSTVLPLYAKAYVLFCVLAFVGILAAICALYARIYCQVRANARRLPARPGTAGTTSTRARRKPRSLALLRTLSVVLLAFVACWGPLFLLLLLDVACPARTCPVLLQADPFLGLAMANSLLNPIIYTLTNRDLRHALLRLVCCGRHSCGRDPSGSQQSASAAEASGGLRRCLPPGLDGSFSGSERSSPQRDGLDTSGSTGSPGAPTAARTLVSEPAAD
G-protein coupled receptor 55, sequence (Q9Y2T6 whole entry): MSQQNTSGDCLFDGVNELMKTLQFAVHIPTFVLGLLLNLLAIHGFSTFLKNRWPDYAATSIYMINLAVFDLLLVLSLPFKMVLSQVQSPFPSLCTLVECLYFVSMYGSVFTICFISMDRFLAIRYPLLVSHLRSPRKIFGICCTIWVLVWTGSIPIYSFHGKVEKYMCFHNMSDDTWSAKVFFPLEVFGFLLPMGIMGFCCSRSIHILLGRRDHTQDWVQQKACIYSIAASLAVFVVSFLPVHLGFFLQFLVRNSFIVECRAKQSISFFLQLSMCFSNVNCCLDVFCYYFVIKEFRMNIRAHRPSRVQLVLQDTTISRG
Beta-galactosidase, sequence (Q8VNN2 whole entry): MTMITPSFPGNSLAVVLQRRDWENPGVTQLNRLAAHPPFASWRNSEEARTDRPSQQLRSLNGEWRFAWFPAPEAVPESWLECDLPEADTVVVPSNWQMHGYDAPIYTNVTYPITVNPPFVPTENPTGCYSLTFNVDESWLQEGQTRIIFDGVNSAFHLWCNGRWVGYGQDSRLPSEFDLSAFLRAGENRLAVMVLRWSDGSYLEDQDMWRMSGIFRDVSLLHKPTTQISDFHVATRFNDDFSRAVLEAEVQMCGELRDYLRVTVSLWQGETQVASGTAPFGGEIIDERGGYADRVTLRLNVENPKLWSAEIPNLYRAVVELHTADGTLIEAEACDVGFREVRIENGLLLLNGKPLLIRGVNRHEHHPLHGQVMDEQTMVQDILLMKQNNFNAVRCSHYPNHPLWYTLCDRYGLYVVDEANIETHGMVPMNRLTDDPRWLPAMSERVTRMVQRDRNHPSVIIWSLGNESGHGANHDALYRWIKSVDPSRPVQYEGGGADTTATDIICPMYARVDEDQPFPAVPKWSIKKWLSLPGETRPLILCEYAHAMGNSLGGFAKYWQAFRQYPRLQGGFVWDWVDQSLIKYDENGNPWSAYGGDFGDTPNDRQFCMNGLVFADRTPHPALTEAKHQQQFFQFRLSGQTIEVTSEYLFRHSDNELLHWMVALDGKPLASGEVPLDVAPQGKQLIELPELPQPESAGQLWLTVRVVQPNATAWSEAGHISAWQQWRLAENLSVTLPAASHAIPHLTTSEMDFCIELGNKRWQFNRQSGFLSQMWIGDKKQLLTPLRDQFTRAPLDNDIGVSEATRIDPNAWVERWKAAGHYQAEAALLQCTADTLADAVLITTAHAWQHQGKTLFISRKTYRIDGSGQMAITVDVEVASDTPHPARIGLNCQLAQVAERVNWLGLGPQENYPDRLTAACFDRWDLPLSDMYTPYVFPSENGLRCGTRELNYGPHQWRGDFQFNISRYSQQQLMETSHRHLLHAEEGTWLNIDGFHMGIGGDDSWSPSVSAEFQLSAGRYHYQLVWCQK
Nuclear receptor ROR-alpha, sequence (P35398 whole entry): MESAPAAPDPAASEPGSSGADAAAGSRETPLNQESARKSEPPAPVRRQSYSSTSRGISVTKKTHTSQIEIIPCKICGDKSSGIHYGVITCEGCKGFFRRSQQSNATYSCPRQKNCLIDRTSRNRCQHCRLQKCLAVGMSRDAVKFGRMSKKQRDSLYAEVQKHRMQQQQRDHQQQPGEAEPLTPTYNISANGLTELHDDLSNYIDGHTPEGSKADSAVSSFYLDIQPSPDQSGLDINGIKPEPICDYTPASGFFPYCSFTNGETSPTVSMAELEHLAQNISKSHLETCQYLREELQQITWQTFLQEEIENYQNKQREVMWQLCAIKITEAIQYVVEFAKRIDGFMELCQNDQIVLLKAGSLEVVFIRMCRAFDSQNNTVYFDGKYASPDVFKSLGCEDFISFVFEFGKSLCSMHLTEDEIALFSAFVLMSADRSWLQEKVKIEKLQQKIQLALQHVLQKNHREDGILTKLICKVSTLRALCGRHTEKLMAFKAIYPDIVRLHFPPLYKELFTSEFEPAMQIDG
Nuclear receptor ROR-gamma, sequence (P51449 whole entry): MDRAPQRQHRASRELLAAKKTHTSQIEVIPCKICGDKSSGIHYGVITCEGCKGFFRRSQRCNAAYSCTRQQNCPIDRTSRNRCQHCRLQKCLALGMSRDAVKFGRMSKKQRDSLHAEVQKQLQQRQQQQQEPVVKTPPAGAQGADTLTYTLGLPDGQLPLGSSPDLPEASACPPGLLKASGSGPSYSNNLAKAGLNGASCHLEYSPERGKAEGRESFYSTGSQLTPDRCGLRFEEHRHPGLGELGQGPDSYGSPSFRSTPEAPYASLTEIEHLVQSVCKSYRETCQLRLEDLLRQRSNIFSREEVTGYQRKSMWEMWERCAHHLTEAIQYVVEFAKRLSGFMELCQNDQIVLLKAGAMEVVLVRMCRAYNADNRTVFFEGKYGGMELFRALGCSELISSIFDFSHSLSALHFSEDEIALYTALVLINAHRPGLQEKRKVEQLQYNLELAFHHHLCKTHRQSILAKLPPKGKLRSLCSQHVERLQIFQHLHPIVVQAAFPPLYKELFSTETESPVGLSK

O=C(Cn1ncc(Cl)c(Cl)c1=O)N1CCc2ccccc21
IC50 [1]: 14.7 µM (inactive) | EC50 [2]: 8.12 µM (active) | EC50 (Mu-type opioid receptor [3]): > 32 µM (inactive) | EC50 [4]: > 32 µM (inactive) | EC50 [5]: 7.57 µM (active) | EC50 [6]: > 120 µM (not active) | EC50 [7]: 2.46 µM (active) | IC50 [8]: 5.51 µM (active) | EC50 [9]: 4.51 µM (active) | EC50 (Beta-galactosidase): > 31.5 µM (inactive) | IC50 [10]: 1.64 µM (active) | IC50 [11]: 2850 nM | IC50 [12]: 5.51 µM (active) | AC50 [13]: 6.1 µM (active) | AC50 (A-375 [14]): > 35 µM (active) | AC50 (A-375 [15]): > 35 µM (active) | AC50 [16]: 7.68 µM (active) | AC50 [17]: 16.3 µM (active) | AC50 [18]: 7.11 µM (active) | AC50 [19]: 8.77 µM (active) | AC50 [20]: 4.3 µM (active)

Cc1ccc(NC(=O)c2ccc(-c3cc(Cl)ccc3Cl)o2)c(C)c1
IC50 [21]: > 25 µM (inactive) | IC50 [22]: > 25 µM (inactive) | IC50 [23]: > 25 µM (inactive) | IC50 [24]: 182 nM (active) | IC50 [25]: > 25 µM (inactive)

Clc1ccc(CSc2nnc(-c3ccccn3)n2Cc2cccs2)cc1Cl
IC50 (Mu-type opioid receptor [26]): > 32 µM (inactive) | EC50 [27]: 349 nM (active) | EC50 (Mu-type opioid receptor [28]): > 32 µM (inactive) | IC50 [29]: > 32 µM (inactive) | EC50 (Mu-type opioid receptor [30]): > 32 µM (inactive) | EC50 [31]: > 32 µM (inactive) | IC50 [32]: > 32 µM (inactive) | EC50 [33]: > 64 µM (inactive) | EC50 [34]: 454 nM (active)

CC(C)(C)c1ccc(S(=O)(=O)Nc2ccc(C(O)(C(F)(F)F)C(F)(F)F)cc2)cc1
IC50 [35]: > 20 µM (inactive) | IC50 [36]: 2.47 µM (active)

O=[N+]([O-])c1c(O)oc2ccccc2/c1=N\C(c1ccccc1)c1ccccc1
IC50 [37]: 2.79 µM (active) | IC50 (Exodeoxyribonuclease V): > 119 µM (inactive) | IC50 [38]: > 119 µM (inactive)
